Like-named read-outs stand apart in the source and are kept apart here.
Experiments:
EGFR‐mutant NSCLC = conditions: cited from earlier work
[1] = Gefitinib 225mg, Japanese patients, ref [3] Nakagawa K et al., Annals of Oncology 2003, cited from earlier work
[2] = cited from earlier work
[3] = Pharmacokinetic analyses: apatinib and gefitinib plasma concentrations (LC–MS/MS, non‐compartmental); conditions: for half-life: T1/2, gefitinib 250 mg + apatinib 500 or 250 mg
Source text: In the two cohorts, PK assessment consisted of a single‐dose‐administration on Cycle 1, Day 1's (C1, D1) test and a continuous‐dose‐administration on Cycle 1, Day 15′s (C1, D15) test. For detailed blood collection administration, see the supplementary materials. […] PK parameters, including maximum plasma concentration (C max), area under the plasma concentration‐time curve (AUC), time to reach maximum plasma concentration (T max), elimination half‐life (T 1/2), steady state concentration (Css), area under the plasma concentration‐time curve for steady state (AUCss), steady state volume of distribution (Vdss), and steady state clearance rate (CLss) were calculated using non‐compartmental methods with Winnonlin 7 software. The AUC was estimated by using the linear trapezoidal rule method and T 1/2 was determined by linear regression of the terminal slope of the logarithmic plasma concentration‐time profile. Descriptive statistics were measured for the PK parameters using mean with its corresponding standard deviation (SD).
In the two cohorts, PK assessment consisted of a single-dose-administration (C1D1) test and a continuous-dose-administration (C1D15) test. Serial peripheral blood samples were collected at pre-dose and 1, 2, 3, 4, 5, 6, 8, 12 and 24 post-dose for the single dose PK test. For the continuous PK test, serial peripheral blood samples were collected at pre-dose and at 0.5, 1, 2, 3, 4, 5, 6, 8, 12, and 24 hours post-dose on […]. Samples were centrifuged, and plasma frozen at −80°C refrigerator until further analysis.
Descriptive statistics (mean and standard deviation) were estimated for PK parameters. Median values and ranges were provided for time to reach maximum plasma concentration.

C=CC(=O)Nc1cc(Nc2nccc(-c3cn(C)c4ccccc34)n2)c(OC)cc1N(C)CCN(C)C [Osimertinib]
mPFS (EGFR‐mutant NSCLC; AURA3 study): 10.1 months

C#Cc1cccc(Nc2ncnc3cc(OCCOC)c(OCCOC)cc23)c1 [erlotinib]
mPFS (EGFR‐mutant NSCLC; ARTEMIS (CTONG 1509) study): 11.3 months | PFS (EGFR‐mutant NSCLC; JO25567 study): 9.7 months | PFS (EGFR‐mutant NSCLC; RELAY study): 12.4 months

COc1cc2ncnc(Nc3ccc(F)c(Cl)c3)c2cc1OCCCN1CCOCC1 [Gefitinib]
AUC0-24multi ([1]; multiple-dosage regimen): 5191 (61) ng·h/ml | AUC0-24 [1]: 1986 (58) ng·h/ml | Cmax [1]: 150 (92) ng/ml | Cmaxmulti [1]: 341 (61) ng/ml | Tmax [1]: 5 (3-7) h | MTD [2]: 750 mg/day | Cmaxmulti ([3]; Table S6, Gefitinib 250mg + apatinib, this study, geometric mean, SD): 469 (134) ng/ml | Tmax ([3]; gefitinib 250 mg + apatinib 500 or 250 mg, Day 15 (n = 11), Median (range)): 4 (3‐6) h | AUC(0-t) ([3]; human, plasma, oral, AUC0-24, Table S6, Gefitinib 250mg + apatinib, this study, geometric mean, SD): 3330 ng·h/mL | AUC ([3]; human, plasma, oral, AUC0-24multi, Table S6, Gefitinib 250mg + apatinib, this study, multiple-dosage regimen, geometric mean, SD): 8130 ng·h/mL | AUC ([3]; human, plasma, oral, AUC0‐24, gefitinib 250 mg + apatinib 500 or 250 mg, Day 1 (n = 11), Table 2: Geometric Mean (%CV)): 3440 ng·h/mL | AUC ([3]; human, plasma, oral, AUC0‐24, gefitinib 250 mg + apatinib 500 or 250 mg, Day 15 (n = 11), Table 2: Geometric Mean (%CV)): 7980 ng·h/mL | AUC ([3]; human, plasma, oral, AUC0‐∞, gefitinib 250 mg + apatinib 500 or 250 mg, Day 1 (n = 11), Geometric Mean (%CV)): 6400 ng·h/mL | AUC ([3]; human, plasma, oral, AUC0‐∞, gefitinib 250 mg + apatinib 500 or 250 mg, Day 15 (n = 11), Geometric Mean (%CV)): 18100 ng·h/mL | AUC ([3]; human, plasma, oral, AUCss, steady state, Gefitinib 250mg + apatinib, Mean±SD): 7220 ± 1730 ng·h/mL | clearance ([3]; human, plasma, oral, CL, gefitinib 250 mg + apatinib 500 or 250 mg, Day 1 (n = 11), Mean (SD)): 683 mL/min | clearance ([3]; human, plasma, oral, CL, gefitinib 250 mg + apatinib 500 or 250 mg, Day 15 (n = 11), Mean (SD)): 533 mL/min | clearance ([3]; human, plasma, oral, CLss, steady state, Gefitinib 250mg + apatinib, Mean±SD): 617 mL/min | Cmax ([3]; human, plasma, oral, Table S6, Gefitinib 250mg + apatinib, this study, geometric mean, SD): 488 ± 28 ng/mL | Cmax ([3]; human, plasma, oral, gefitinib 250 mg + apatinib 500 or 250 mg, Day 1 (n = 11), Table 2: Geometric Mean (%CV)): 272 ng/mL | Cmax ([3]; human, plasma, oral, gefitinib 250 mg + apatinib 500 or 250 mg, Day 15 (n = 11), Table 2: Geometric Mean (%CV)): 465 ng/mL | half-life ([3]; human, plasma, oral, Day 1 (n = 11), Mean (SD)): 21 h | half-life ([3]; human, plasma, oral, Day 15 (n = 11), Mean (SD)): 30 h | Tmax ([3]; human, plasma, oral, Tmax, Table S6, Gefitinib 250mg + apatinib, this study, geometric mean, SD): 3.9 h | Tmax ([3]; human, plasma, oral, Tmax, gefitinib 250 mg + apatinib 500 or 250 mg, Day 1 (n = 11), Median (range)): 3 h | Tmax ([3]; human, plasma, oral, Tmax, gefitinib 250 mg + apatinib 500 or 250 mg, Day 15 (n = 11), Median (range)): 3 h | Vd ([3]; human, plasma, oral, Vd, gefitinib 250 mg + apatinib 500 or 250 mg, Day 1 (n = 11), Mean (SD)): 1100 L | Vd ([3]; human, plasma, oral, Vd, gefitinib 250 mg + apatinib 500 or 250 mg, Day 15 (n = 11), Mean (SD)): 1330 L | Vd ([3]; human, plasma, oral, Vdss, steady state, Gefitinib 250mg + apatinib, Mean±SD): 880 ± 234 L

Reference: paper PMC7403827 (Clinical and Translational Medicine, 2020)
